# Results published in patent US20240423907A1, “Improved Nasal Administration of Pharmaceutical Formulations” (Cyrano Therapeutics, Inc., priority 2022, published 2024).
# Assays:
# [1] = tested on: subject diagnosed with a sinus infection; test: Treatment of sinusitis in a subject; format: in vivo; conditions: nasal spray device described herein, effective dose 2× daily in each naris
# From the text: A subject is admitted to a clinic for nasal congestion, nasal inflammation, facial pain (e.g., pain around the eyes, cheeks, nose and forehead). The subject is diagnosed with a sinus infection. The subject is prescribed a beclomethasone dipropionate composition in a nasal spray device described herein. The subject administers the nasal spray in an effective dose 2× daily in each naris. The nasal spray is characterized by a spray containing a D50 of about 15 μm to about 24 μm, a D90 of from about 30 μm to about 50 μm and where less than about 3% of the droplets in the plume of a spray have a size of less than about 10 μm.
# [2] = tested on: subject diagnosed with allergic rhinitis; test: Treatment of allergic rhinitis in a subject; format: in vivo; conditions: nasal spray device described herein, effective dose 1× daily in each naris
# From the text: A subject is admitted to a clinic for nasal congestion, sneezing, itchy eyes, and watery eyes. The subject is diagnosed with allergic rhinitis. The subject is prescribed a fluticasone propionate composition in a nasal spray device described herein. The subject administers the nasal spray in an effective dose 1× daily in each naris. The nasal spray is characterized by a spray containing a D50 of about 15 μm to about 24 μm, a D90 of from about 30 μm to about 50 μm, and where less than about 3% of the droplets in the plume of a spray have a size of less than about 10 μm.
structure (smiles),measurement,setting,value
CCC(=O)OCC(=O)[C@@]1(OC(=O)CC)[C@@H](C)C[C@H]2[C@@H]3CCC4=CC(=O)C=C[C@]4(C)[C@@]3(Cl)[C@@H](O)C[C@@]21C [beclomethasone dipropionate],"symptoms of the sinus infection (pain, nasal inflammation and congestion) after administration",[1],reduced symptoms
CCC(=O)O[C@]1(C(=O)SCF)[C@H](C)C[C@H]2[C@@H]3C[C@H](F)C4=CC(=O)C=C[C@]4(C)[C@@]3(F)[C@@H](O)C[C@@]21C [fluticasone propionate],"symptoms of allergic rhinitis (sneezing, itchy eyes, nasal congestion, watery eyes) after administration",[2],reduced symptoms
